Experimental data from ChEMBL document CHEMBL4507316 (2021).

Assays:
[1] = target: Serine/threonine-protein kinase PAK 2 (Homo sapiens) (UniProt Q13177); assay: PAK2 ProQinase selectivity panel; details: Compound concentration 1.0 uM
[2] = target: Serine/threonine-protein kinase WNK3 (Homo sapiens) (UniProt Q9BYP7); assay: WNK3 ProQinase selectivity panel; details: Compound concentration 1.0 uM
[3] = target: Activin receptor type-1B (Homo sapiens) (UniProt P36896); assay: ACV-R1B ProQinase selectivity panel; details: Compound concentration 1.0 uM
[4] = target: Dual specificity tyrosine-phosphorylation-regulated kinase 1A (Homo sapiens) (UniProt Q13627); assay: DYRK1A ProQinase selectivity panel; details: Compound concentration 1.0 uM
[5] = target: Kappa-type opioid receptor (Homo sapiens) (UniProt P41145); details: Compound concentration 10.0 uM
[6] = target: Serine/threonine-protein kinase PLK3 (Homo sapiens) (UniProt Q9H4B4); assay: PLK3 ProQinase selectivity panel; details: Compound concentration 1.0 uM
[7] = target: BDNF/NT-3 growth factors receptor (Homo sapiens) (UniProt Q16620); assay: TRK-B ProQinase selectivity panel; details: Compound concentration 1.0 uM
[8] = tested on: Epidermal growth factor receptor (Homo sapiens), P00533 [L858R,T790M]; assay: EGF-R T790M/L858R ProQinase selectivity panel; details: Compound concentration 1.0 uM
[9] = target: Serine/threonine-protein kinase TBK1 (Homo sapiens) (UniProt Q9UHD2); assay: TBK1 ProQinase selectivity panel; details: Compound concentration 1.0 uM
[10] = tested on: Tyrosine-protein kinase ABL1 (Homo sapiens), P00519 [G250E]; assay: ABL1 G250E ProQinase selectivity panel; details: Compound concentration 1.0 uM
[11] = target: cAMP-dependent protein kinase catalytic subunit PRKX (Homo sapiens) (UniProt P51817); assay: PRKX ProQinase selectivity panel; details: Compound concentration 1.0 uM
[12] = target: Cyclin-dependent kinase 2/cyclin A (Homo sapiens) (UniProt P24941+P20248+P78396); assay: CDK2/CycA ProQinase selectivity panel; type: protein-complex assay; details: Compound concentration 1.0 uM
[13] = target: D(1B) dopamine receptor (Homo sapiens) (UniProt P21918); details: Compound concentration 10.0 uM
[14] = target: Tyrosine-protein kinase ABL2 (Homo sapiens) (UniProt P42684); assay: ABL2 ProQinase selectivity panel; details: Compound concentration 1.0 uM
[15] = target: Glycogen synthase kinase-3 alpha (Homo sapiens) (UniProt P49840); assay: GSK3-alpha ProQinase selectivity panel; details: Compound concentration 1.0 uM
[16] = tested on: Leucine-rich repeat serine/threonine-protein kinase 2 (Homo sapiens), Q5S007 [I2020T]; assay: LRRK2 I2020T ProQinase selectivity panel; details: Compound concentration 1.0 uM
Sequence of Leucine-rich repeat serine/threonine-protein kinase 2 (Homo sapiens), Q5S007 [I2020T] (Q5S007 whole entry I2020T): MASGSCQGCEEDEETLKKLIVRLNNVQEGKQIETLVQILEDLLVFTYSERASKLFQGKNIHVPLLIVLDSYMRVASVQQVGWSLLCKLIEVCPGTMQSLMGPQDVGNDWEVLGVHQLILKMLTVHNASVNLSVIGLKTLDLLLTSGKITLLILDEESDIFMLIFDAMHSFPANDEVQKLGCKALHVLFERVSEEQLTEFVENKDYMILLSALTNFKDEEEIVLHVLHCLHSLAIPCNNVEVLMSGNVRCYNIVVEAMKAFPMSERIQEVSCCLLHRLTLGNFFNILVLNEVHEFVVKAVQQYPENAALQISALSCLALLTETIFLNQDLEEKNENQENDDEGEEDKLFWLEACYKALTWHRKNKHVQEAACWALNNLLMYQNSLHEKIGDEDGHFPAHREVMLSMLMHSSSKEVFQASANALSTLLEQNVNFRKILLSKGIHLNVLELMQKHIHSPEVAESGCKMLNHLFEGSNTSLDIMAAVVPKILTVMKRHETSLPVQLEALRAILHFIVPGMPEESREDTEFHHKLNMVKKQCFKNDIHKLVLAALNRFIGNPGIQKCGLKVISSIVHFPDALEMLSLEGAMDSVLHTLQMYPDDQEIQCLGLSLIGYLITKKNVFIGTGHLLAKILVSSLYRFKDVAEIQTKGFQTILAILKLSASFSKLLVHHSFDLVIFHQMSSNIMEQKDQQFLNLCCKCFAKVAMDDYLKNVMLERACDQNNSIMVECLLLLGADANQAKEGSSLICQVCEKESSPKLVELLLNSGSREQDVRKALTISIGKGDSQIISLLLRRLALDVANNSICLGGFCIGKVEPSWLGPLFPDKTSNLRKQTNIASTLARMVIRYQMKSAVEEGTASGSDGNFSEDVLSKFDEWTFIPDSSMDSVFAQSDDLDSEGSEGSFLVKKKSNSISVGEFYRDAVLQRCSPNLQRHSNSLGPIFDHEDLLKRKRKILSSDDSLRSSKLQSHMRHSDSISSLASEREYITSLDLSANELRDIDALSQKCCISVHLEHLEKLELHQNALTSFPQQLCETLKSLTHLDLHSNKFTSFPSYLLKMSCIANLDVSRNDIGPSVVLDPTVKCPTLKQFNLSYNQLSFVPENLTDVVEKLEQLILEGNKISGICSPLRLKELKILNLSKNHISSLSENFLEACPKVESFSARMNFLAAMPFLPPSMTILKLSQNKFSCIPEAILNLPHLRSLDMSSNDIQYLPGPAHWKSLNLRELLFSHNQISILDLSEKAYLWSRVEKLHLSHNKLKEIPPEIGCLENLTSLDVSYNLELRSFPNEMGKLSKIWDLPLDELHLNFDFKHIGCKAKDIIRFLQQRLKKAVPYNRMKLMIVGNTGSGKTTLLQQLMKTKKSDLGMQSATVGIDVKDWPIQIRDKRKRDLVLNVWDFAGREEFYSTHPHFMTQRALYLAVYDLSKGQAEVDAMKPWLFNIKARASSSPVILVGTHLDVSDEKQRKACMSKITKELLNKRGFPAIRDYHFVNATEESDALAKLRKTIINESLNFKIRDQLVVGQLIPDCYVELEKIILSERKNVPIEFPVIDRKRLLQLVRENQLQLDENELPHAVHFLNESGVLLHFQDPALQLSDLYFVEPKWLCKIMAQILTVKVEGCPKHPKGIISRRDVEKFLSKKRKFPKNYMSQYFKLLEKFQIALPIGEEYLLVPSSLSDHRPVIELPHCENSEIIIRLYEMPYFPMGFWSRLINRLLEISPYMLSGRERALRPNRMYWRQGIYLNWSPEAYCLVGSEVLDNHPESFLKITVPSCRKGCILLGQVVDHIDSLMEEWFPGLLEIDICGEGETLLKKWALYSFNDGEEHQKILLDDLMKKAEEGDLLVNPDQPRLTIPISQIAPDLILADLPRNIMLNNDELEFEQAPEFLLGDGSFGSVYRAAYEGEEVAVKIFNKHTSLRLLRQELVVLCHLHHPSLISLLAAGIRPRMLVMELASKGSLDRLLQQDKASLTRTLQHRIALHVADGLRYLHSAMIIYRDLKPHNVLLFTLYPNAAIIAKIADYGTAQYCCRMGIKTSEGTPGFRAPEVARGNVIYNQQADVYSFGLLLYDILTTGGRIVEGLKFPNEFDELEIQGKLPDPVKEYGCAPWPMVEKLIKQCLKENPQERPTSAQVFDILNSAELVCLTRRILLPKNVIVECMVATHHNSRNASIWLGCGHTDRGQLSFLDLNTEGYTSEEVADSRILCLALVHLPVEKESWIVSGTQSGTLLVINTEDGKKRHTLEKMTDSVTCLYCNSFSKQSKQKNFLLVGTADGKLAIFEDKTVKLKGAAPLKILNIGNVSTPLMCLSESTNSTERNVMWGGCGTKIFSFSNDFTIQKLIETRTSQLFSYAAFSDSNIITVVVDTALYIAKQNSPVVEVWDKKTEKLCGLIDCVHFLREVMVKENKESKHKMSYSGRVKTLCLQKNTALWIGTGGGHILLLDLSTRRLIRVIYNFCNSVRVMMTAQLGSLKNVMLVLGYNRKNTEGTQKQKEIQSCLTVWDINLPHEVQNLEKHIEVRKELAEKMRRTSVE

Sequence of Kappa-type opioid receptor (Homo sapiens) (P41145 whole entry): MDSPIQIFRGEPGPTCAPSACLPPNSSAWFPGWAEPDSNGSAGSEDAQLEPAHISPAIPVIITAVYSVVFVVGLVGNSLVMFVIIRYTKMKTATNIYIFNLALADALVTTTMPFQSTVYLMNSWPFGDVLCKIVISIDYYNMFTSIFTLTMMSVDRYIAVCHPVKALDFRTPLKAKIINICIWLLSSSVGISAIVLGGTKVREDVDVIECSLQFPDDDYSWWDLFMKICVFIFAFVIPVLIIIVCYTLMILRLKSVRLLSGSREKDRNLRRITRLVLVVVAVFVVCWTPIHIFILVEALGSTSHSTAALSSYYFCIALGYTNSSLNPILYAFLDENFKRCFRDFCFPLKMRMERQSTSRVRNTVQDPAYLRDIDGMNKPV
Sequence of BDNF/NT-3 growth factors receptor (Homo sapiens) (Q16620 32-822 limits assumed): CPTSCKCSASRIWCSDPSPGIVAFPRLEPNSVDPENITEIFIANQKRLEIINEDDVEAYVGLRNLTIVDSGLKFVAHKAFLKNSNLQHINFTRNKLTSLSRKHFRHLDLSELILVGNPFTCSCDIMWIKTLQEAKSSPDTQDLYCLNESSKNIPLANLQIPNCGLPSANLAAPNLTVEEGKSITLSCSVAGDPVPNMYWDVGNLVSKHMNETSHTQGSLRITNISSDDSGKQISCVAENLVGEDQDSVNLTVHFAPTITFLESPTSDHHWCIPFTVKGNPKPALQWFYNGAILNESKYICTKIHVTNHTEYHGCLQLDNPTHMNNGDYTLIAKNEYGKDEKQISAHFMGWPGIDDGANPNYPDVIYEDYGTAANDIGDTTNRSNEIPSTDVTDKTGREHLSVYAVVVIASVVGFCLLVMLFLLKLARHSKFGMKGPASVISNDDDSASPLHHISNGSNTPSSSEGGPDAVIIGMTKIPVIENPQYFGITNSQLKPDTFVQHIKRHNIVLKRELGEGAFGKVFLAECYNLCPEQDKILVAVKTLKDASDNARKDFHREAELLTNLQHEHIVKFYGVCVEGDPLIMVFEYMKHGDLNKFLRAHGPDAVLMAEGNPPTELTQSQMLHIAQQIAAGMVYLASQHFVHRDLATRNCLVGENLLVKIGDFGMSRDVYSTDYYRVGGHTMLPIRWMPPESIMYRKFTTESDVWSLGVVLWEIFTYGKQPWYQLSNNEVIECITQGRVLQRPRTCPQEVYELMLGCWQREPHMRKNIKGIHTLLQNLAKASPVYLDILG
Sequence of cAMP-dependent protein kinase catalytic subunit PRKX (Homo sapiens) (P51817 whole entry): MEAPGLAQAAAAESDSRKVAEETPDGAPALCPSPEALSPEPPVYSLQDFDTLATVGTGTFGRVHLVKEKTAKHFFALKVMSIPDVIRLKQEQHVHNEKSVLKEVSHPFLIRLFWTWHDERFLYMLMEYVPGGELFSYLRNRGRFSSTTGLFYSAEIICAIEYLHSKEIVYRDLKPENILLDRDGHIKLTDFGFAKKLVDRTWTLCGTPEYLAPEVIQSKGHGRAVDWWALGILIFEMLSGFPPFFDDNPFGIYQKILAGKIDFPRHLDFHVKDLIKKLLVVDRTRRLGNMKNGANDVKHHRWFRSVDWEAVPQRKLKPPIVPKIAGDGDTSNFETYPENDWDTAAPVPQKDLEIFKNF
Sequence of D(1B) dopamine receptor (Homo sapiens) (P21918 whole entry): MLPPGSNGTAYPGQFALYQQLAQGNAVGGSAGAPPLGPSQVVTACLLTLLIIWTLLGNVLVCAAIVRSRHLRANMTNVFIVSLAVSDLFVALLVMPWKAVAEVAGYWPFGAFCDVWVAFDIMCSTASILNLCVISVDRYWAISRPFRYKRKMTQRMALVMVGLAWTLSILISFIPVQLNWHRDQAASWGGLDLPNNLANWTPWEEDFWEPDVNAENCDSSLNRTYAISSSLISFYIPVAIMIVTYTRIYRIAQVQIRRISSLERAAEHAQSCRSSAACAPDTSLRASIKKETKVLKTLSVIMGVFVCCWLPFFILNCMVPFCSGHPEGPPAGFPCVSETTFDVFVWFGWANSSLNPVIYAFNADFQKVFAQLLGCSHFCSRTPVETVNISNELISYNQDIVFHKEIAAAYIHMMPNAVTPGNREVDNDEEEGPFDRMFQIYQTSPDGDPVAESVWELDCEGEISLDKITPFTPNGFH
Sequence of Activin receptor type-1B (Homo sapiens) (P36896 whole entry): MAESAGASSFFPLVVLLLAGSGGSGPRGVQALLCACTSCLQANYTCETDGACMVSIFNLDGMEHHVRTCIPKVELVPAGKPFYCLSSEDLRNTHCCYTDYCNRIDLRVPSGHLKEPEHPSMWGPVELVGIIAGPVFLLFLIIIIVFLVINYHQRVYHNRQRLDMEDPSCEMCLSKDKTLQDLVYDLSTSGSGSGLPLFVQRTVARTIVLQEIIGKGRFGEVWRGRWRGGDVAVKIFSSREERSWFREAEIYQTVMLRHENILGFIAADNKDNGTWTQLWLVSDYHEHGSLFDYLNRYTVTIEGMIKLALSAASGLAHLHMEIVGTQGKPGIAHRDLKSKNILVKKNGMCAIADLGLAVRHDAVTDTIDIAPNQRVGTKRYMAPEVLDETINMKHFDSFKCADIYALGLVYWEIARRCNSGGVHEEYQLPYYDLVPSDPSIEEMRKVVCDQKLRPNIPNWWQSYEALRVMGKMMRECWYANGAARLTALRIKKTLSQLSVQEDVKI

O=C1c2ccc(Nc3ccc(F)cc3F)cc2CCc2ccc(OC[C@H](O)CO)cc21 [Skepinone-L]
inactive: % Residual activity with Skepinone-L [1] 83% | % Residual activity with Skepinone-L [2] 100% | % Residual activity with Skepinone-L [3] 77% | % Residual activity with Skepinone-L [4] 96% | inhibition [5] -4% | % Residual activity with Skepinone-L [6] 99% | % Residual activity with Skepinone-L [7] 77% | % Residual activity with Skepinone-L [8] 93% | % Residual activity with Skepinone-L [9] 87% | % Residual activity with Skepinone-L [10] 97% | % Residual activity with Skepinone-L [11] 79% | % Residual activity with Skepinone-L [12] 101% | inhibition [13] 21% | % Residual activity with Skepinone-L [14] 99% | % Residual activity with Skepinone-L [15] 93% | % Residual activity with Skepinone-L [16] 94%
